Here are results for 32 compounds from ChEMBL document CHEMBL5316342, “Structure-Based Design of Potent Iminosugar Inhibitors of Endoplasmic Reticulum α-Glucosidase I with Anti-SARS-CoV-2 Activity” (J Med Chem, 2023).

A word on the IC50: it is the concentration that gives 50% inhibition. Broadly, the CC50 is the concentration giving 50% cytotoxicity. The EC50 is the concentration that produces a half-maximal response.

Series [1] can be described thus: Inhibition of mouse recombinant alpha-glucosidase using 4-methylumbelliferyl-[…]-D-glucopyranoside as substrate preincubated for 60 mins followed by substrate addition and measured after 30 mins by fluorescence based analysis.
Series [2] in a line: Cytotoxicity against human A549-ACE2 cells infected with SARS-CoV-2 USA-WA1/2020 assessed as reduction in cell viability at 25 uM measured for 3 days by WST-1 assay relative to control. In kind it is toxicity, cell-based. To be noted: a549-ace2, 72 h, time 3 day. On the technique in general: Tetrazolium dyes change colour on reduction, which living cells bring about.
A short description of series [3]: Cytotoxicity against human A549-ACE2 cells infected with SARS-CoV-2 USA-WA1/2020 assessed as reduction in cell viability measured for 3 days by WST-1 assay. As to conditions: a549-ace2, 72 h, time 3 day. In kind it is toxicity, cell-based.
Series [4] can be described thus: Inhibition of C-terminal his6-tagged full length recombinant mouse Endoplasmic reticulum alpha-glucosidase 1 (59 to 834 residues) expressed in FreeStyle 293-F cells using trisaccharide as substrate preincubated for 60 mins followed by substrate addition and measured for 90 mins by Amplex Red assay.
For series [5], the system named is SARS-CoV-2. Nature of the series: Antiviral activity against SARS-CoV-2 USA-WA1/2020 infected in human A549-ACE2 cells assessed as maximum reduction in viral burden up to 100 uM measured upto 4 days by viral plaque assay. As to conditions: Severe acute respiratory syndrome coronavirus 2, time <= 4.0 day. Type of series: functional.
The subject of series [6] is SARS-CoV-2. Nature of the series: Antiviral activity against SARS-CoV-2 USA-WA1/2020 infected in human A549-ACE2 cells assessed as reduction in viral burden measured upto 4 days by viral plaque assay. In kind it is functional, organism-based. To be noted: Severe acute respiratory syndrome coronavirus 2, USA-WA1/2020, A549-ACE2, 96 h.

The structures appear in SMILES notation. Activity calls are given as the source filed them. The rule behind the calls is not given here.

With `OC[C@@H]1[C@@H](O)[C@H](O)[C@@H](O)CN1CCc1ccc(CCNc2cc(O)cc(-c3ncon3)c2)cc1`, the half-maximal inhibitory concentration (IC50) in series [1] worked out at 295 nM; in series [4] it was 1010 nM. Moreover, the Activity in series [2] turned out to be 83.8%. The CC50 in series [3] is over 100000 nM.
In the case of `O=[N+]([O-])c1cc(-n2nccn2)ccc1NCCCCCCN[C@H]1C[C@](O)(CO)[C@@H](O)[C@H](O)[C@H]1O`, the results for the IC50 in series [1] and in series [4] were under 1 nM and 47 nM, respectively.
Regarding `O=[N+]([O-])c1cc(-n2cccn2)ccc1NCCCCCCN[C@H]1C[C@](O)(CO)[C@@H](O)[C@H](O)[C@H]1O`, in series [2], the Activity was found to be 85.6%. The CC50 in series [3] is over 100000 nM.
Take `N#Cc1cc(NCc2cccc(CN3C[C@H](O)[C@@H](O)[C@H](O)[C@H]3CO)c2)cc(C2=COCCO2)c1`: the IC50 stood at 2670 nM in series [1] and 3 nM in series [4]. Further, the Activity in series [2] is given as 100%. The CC50 in series [3] is over 100000 nM.
The like results for `OC[C@@H]1[C@@H](O)[C@H](O)[C@@H](O)CN1CCc1ccc(CCNc2cc(O)cc(-c3cccnn3)c2)cc1` were, in that order, under 1 nM, 211 nM, 93.5% and over 100000 nM.
As to `Cc1cc(NCc2ccc(CN3C[C@H](O)[C@@H](O)[C@H](O)[C@H]3CO)cc2)cc(-c2cccnn2)c1`, the IC50 is 179 nM in series [1] and 73 nM in series [4]. In addition, the Activity in series [2] turned out to be 73.7%. Also, the result in the series on SARS-CoV-2 [5] was inactive.
With `CCCCN[C@H]1C[C@](O)(CO)[C@@H](O)[C@H](O)[C@H]1O`, the IC50 in series [4] turned out to be 29500 nM.
As for `O=[N+]([O-])c1cc(NCCCCCCN2C[C@H](O)[C@@H](O)[C@H](O)[C@H]2CO)cc(-c2ccncc2)c1`, the figures for the IC50 in series [1] and in series [4] were under 1 nM and 1 nM, respectively. In addition, the Activity in series [2] came out at 87.2%. The cytotoxic concentration (CC50) in series [3] was 54200 nM.
Take `Cc1nc2cc(-c3ncccn3)ccc2n1CCCCCCN1C[C@H](O)[C@@H](O)[C@H](O)[C@H]1CO`: the results for the IC50 in series [1] and in series [4] were 194 nM and 78 nM, respectively. Moreover, the Activity in series [2] stood at 80.8%. Besides, the cytotoxic concentration (CC50) in series [3] is over 100000 nM. The EC50 with SARS-CoV-2 [6] stood at 12200 nM.
`OC[C@@H]1[C@@H](O)[C@H](O)[C@@H](O)CN1Cc1ccc(CNc2ccc(N3CCOCC3)cc2)cc1`: the figures for the IC50 in series [1] and in series [4] were 1580 nM and 122 nM, respectively. For the same compound, the Activity in series [2] is recorded as 97.6%. Moreover, in series [3], the half-maximal cytotoxic concentration (CC50) was over 100000 nM.
`[N-]=[N+]=Nc1ccc(NCCOC(=O)NCCN[C@H]2C[C@](O)(CO)[C@@H](O)[C@H](O)[C@H]2O)c([N+](=O)[O-])c1`: the 50% inhibitory concentration (IC50) in series [4] stood at 1130 nM.
For the compound `O=[N+]([O-])c1cc(N2C3CCC2COC3)ccc1NCCCCCCN1C[C@H](O)[C@@H](O)[C@H](O)[C@H]1CO`, the figures for the IC50 in series [1] and in series [4] were 30 nM and 52 nM, respectively. Also, the Activity in series [2] is 98.9%. The CC50 in series [3] is over 100000 nM. For the same compound, in the series on SARS-CoV-2 [6], the 50% effective concentration (EC50) came out at 1610 nM.
The corresponding values for `OC[C@@H]1[C@@H](O)[C@H](O)[C@@H](O)CN1CCCCCCNc1cc(-c2cccnn2)cc(C2CC2)c1` are 12 nM, 103 nM, 100%, over 100000 nM and 7860 nM.
Regarding `COCCCCCCCCCN1C[C@H](O)[C@@H](O)[C@H](O)[C@H]1CO`, the IC50 in series [1] was 68 nM; in series [4], 537 nM.
Turning to `COCCc1ccc(CCCCCN2C[C@H](O)[C@@H](O)[C@H](O)[C@H]2CO)cc1`, the IC50 in series [1] was 76 nM; in series [4], 1160 nM.
Turning to `Cc1cc(NCc2cccc(CN3C[C@H](O)[C@@H](O)[C@H](O)[C@H]3CO)c2)cc(-c2ncccn2)c1`, the IC50 in series [1] was determined as 66500 nM; in series [4], 44 nM. Besides, the Activity in series [2] turned out to be 52.9%. For the same compound, the result in the series on SARS-CoV-2 [5] was inactive.
Turning to `CS(=O)(=O)c1cc(Br)cc(NCc2cccc(CN3C[C@H](O)[C@@H](O)[C@H](O)[C@H]3CO)c2)c1`, the IC50 was 7920 nM in series [1] and 19 nM in series [4]. The Activity in series [2] is 100%. Besides, the half-maximal cytotoxic concentration (CC50) in series [3] was over 100000 nM.
With `[N-]=[N+]=Nc1ccc(NCCCCCCN2C[C@H](O)[C@@H](O)[C@H](O)[C@H]2CO)c([N+](=O)[O-])c1`, the half-inhibitory concentration (IC50) in series [1] was 10 nM; in series [4], 155 nM. Besides, the Activity in series [2] is 100%. Also, in series [3], the CC50 is over 100000 nM. The 50% effective concentration (EC50) in the series with SARS-CoV-2 [6] was 580 nM.
On to `O=[N+]([O-])c1cc(N2CCOCC2)ccc1NCc1cccc(CN2C[C@H](O)[C@@H](O)[C@H](O)[C@H]2CO)c1`, for which the IC50 in series [1] was determined as 12800 nM; in series [4], 99 nM. Moreover, the Activity in series [2] is 36.5%. The outcome with SARS-CoV-2 [5] was inactive.
On to `O=[N+]([O-])c1cc(-c2noc(C3CCC3)n2)ccc1NCCCCCCN1C[C@H](O)[C@@H](O)[C@H](O)[C@H]1CO`, for which the IC50 was under 1 nM in series [1] and 11 nM in series [4]. Moreover, the Activity in series [2] turned out to be 100%. Further, the CC50 in series [3] turned out to be 40700 nM. Further, in the series on SARS-CoV-2 [6], the concentration for a half-maximal effect (EC50) came out at 720 nM.
In the case of `CS(=O)(=O)c1cc(NCc2ccc(CN3C[C@H](O)[C@@H](O)[C@H](O)[C@H]3CO)cc2)cc(-c2cccnn2)c1`, the IC50 is 114 nM in series [1] and 21 nM in series [4]. Besides, the Activity in series [2] stood at 99.2%. Moreover, the cytotoxic concentration (CC50) in series [3] is over 100000 nM.
With `OC[C@@H]1[C@@H](O)[C@H](O)[C@@H](O)CN1CCCCCCCCc1ccco1`, the 50% inhibitory concentration (IC50) in series [1] was 35 nM; in series [4], 139 nM. The Activity in series [2] is 95.7%. Further, in series [3], the CC50 was found to be 35000 nM. Besides, in the series on SARS-CoV-2 [6], the 50% effective concentration (EC50) stood at 3360 nM.
In the case of `C[C@@H]1CN(c2ccc(NCc3ccc(CN4C[C@H](O)[C@@H](O)[C@H](O)[C@H]4CO)cc3)c([N+](=O)[O-])c2)C[C@H](C)O1`, the IC50 in series [1] amounted to 4 nM; in series [4], 1 nM. For the same compound, the Activity in series [2] was determined as 51.5%. In addition, the result in the series with SARS-CoV-2 [5] was inactive.
The like results for `[N-]=[N+]=Nc1ccc(NCCc2cncc(CCN3C[C@H](O)[C@@H](O)[C@H](O)[C@H]3CO)n2)c([N+](=O)[O-])c1` were, in that order, 3 nM, 94 nM, 38.8% and “inactive”.
On to `Cc1nc(-c2ccc(NCCCCCCN3C[C@H](O)[C@@H](O)[C@H](O)[C@H]3CO)c([N+](=O)[O-])c2)no1`, for which the half-inhibitory concentration (IC50) in series [1] turned out to be 3 nM; in series [4], 99 nM. For the same compound, in series [2], the Activity amounted to 100%. The half-maximal cytotoxic concentration (CC50) in series [3] is over 100000 nM. Also, the EC50 in the series on SARS-CoV-2 [6] was found to be 440 nM.
The corresponding values for `Cc1cc(-c2ccco2)ccc1NCc1ccc(CN2C[C@H](O)[C@@H](O)[C@H](O)[C@H]2CO)cc1` are 318 nM, under 1 nM, 82.6%, 29500 nM and over 25000 nM.
For `CS(=O)(=O)c1cc(NCc2cccc(CN3C[C@H](O)[C@@H](O)[C@H](O)[C@H]3CO)c2)cc(-c2ccccc2)c1`, the IC50 is 4600 nM in series [1] and 17 nM in series [4]. Also, the Activity in series [2] was 40.8%. Further, the result in the series on SARS-CoV-2 [5] was inactive.
Turning to `O=[N+]([O-])c1cc(-c2ccccc2)ccc1NCCCCCCN1C[C@H](O)[C@@H](O)[C@H](O)[C@H]1CO`, the IC50 was under 1 nM in series [1] and 57 nM in series [4]. The Activity in series [2] was 100%. The CC50 in series [3] was over 100000 nM. Also, the EC50 with SARS-CoV-2 [6] was 420 nM.
With `COCCCCCCCCCN1C[C@H](O)[C@@H](O)[C@H](O)[C@H]1CO.Cl`, in series [2], the Activity came to 100%. Besides, in series [3], the cytotoxic concentration (CC50) was over 100000 nM. Also, in the series on SARS-CoV-2 [6], the concentration for a half-maximal effect (EC50) was 3320 nM.
On to `Cc1cc(NCc2cccc(CN3C[C@H](O)[C@@H](O)[C@H](O)[C@H]3CO)n2)cc(-c2ccc[nH]2)c1`, for which the concentration for half-maximal inhibition (IC50) in series [1] is over 100000 nM; in series [4] it was 966 nM. Also, the Activity in series [2] is recorded as 54.1%. For the same compound, the result in the series with SARS-CoV-2 [5] was inactive.
The like results for `O=[N+]([O-])c1cc(-c2ccnc(N3CCOCC3)n2)ccc1NCCCCCCN1C[C@H](O)[C@@H](O)[C@H](O)[C@H]1CO` were, in that order, under 1 nM, under 1 nM, 58.6% and “inactive”.
`O=[N+]([O-])c1cc(N2[C@@H]3CC[C@H]2COC3)ccc1NCc1ccc(CN2C[C@H](O)[C@@H](O)[C@H](O)[C@H]2CO)cc1`: the IC50 in series [1] and in series [4] was under 1 nM throughout. For the same compound, the Activity in series [2] is 75%. In series [3], the cytotoxic concentration (CC50) was 39800 nM.
